Experimental findings from patent EP0332295A2, “Novel imidazole derivative” (priority 1988, dated 1989) are described below.

In experiment [1] the test system is mice. As to the kind of experiment: Anti-hypoxia action (hypobaric hypoxia, existence time at 180 mmHg, life prolongation ratio). It is filed as in vivo. Particulars: male ddy mice, administered in the abdominal cavity at 25 mg/kg, 30 minutes before pressure reduction to 180 mmHg, ratio of existence time to saline control (cut-off 15 minutes); for response vs control in vivo at 25 mg/kg: Mus musculus, ip. How it is done: With respect to each of the above-mentioned compounds (compounds Nos. 1 through 54), the anti-hypoxia action was tested according to the following method and was evaluated by the life prolongation ratio.
Male mice if the ddy-line, which were 5 to 8 weeks old, were used as test animals, and they were divided into groups, each consisting of 7 to 10 mice. The compound to be tested was dissolved in a physiological saline solution. If the compound to be tested was insoluble, the compound was suspended in 1% gum arabic. The solution or suspension was administered in the abdominal cavity at a does of 25 mg/kg and when 30 minutes had passed from the point of the administration, the mice were independently placed one by one into a desiccator (capacity = 1 liter) and the pressure in the desiccator was reduced to 180 mmHg by a vacuum pump.
The period of from the point of initiation of the reduction of the pressure to the point of the stop of breathing was regarded as the existence time. When the mouse lived for more than 15 minutes, the calculation was done while regarding the existence time as being 15 minutes.
The significant difference test of the existence time was carried out according to the student t-test method using controls to which a physiological saline solution alone had been administered. The ratio of the existence time of the sample-administered group to the existence time of the physiological saline solution-administered control group was calculated as the life prolongation ratio.

For experiment [2], the system named is mice. Described as above. It is filed as in vivo. As to conditions: Mus musculus, ip, male ddy mice, 30 minutes before pressure reduction to 180 mmHg, ratio of existence time to saline control; for response vs control in vivo at 12.5 mg/kg: administration dose = 12.5 mg/kg in the abdominal cavity; for response vs control in vivo at 50 mg/kg: administration dose = 50 mg/kg in the abdominal cavity.

Each structure is given as a SMILES string.

Take `Cc1cccc(C)c1Cc1cn(C(=O)N2CCCCC2)cn1` [compound 14]: in experiment [1], the response vs control in vivo at 25 mg/kg turned out to be 270%.
Consider `CCOC(=O)n1cc(-c2ccccc2)nc1SC(=O)N(C)C` [compound 31], for which the response vs control in vivo at 25 mg/kg in experiment [1] is 123%.
Take `CCn1cc(-c2ccccc2)nc1SC(=O)N(C)C` [compound 23]: in experiment [1], the response vs control in vivo at 25 mg/kg stood at 264%.
Turning to `CCN(CC)C(=O)Sc1nc(-c2ccccc2)c[nH]1` [compound 34], the response vs control in vivo at 12.5 mg/kg in experiment [2] worked out at 100%.
The same measure, in the same setting: under `CCCN(CCC)C(=O)Sc1nc(-c2ccccc2)c[nH]1` [compound 35] stands 87%.
For `Cc1cccc(C)c1Cc1cn(C(=O)N(C)C2CCCCC2)cn1` [compound 10], in experiment [1], the response vs control in vivo at 25 mg/kg was found to be 253%.
Same read-out and setting: under `CCOC(=O)n1cnc(Cc2c(C)cccc2C)c1` [compound 18] stands 182%.
As to `O=C(Sc1nc(-c2ccccc2)c[nH]1)N1CCCCC1` [compound 37], the response vs control in vivo at 12.5 mg/kg in experiment [2] is 85%.
Regarding `CCc1[nH]c(SC(=O)N(C)C)nc1-c1ccccc1` [compound 43], in experiment [1], the response vs control in vivo at 25 mg/kg was found to be 121%.
Same read-out and setting: under `CN(C)C(=O)n1cnc(Cc2ccccc2)c1` [compound 1, 4-benzyl-1-(N,N-dimethylcarbamoyl)imidazole] stands 85%; under `CN(C)C(=O)Sc1nc(-c2ccccc2)cn1-c1ccccc1` [compound 27], 146%.
As to `Cc1ccccc1-c1c[nH]c(SC(=O)N(C)C)n1` [compound 45], the response vs control in vivo at 25 mg/kg in experiment [1] worked out at 192%.
For the compound `Cc1ccc(-c2c[nH]c(SC(=O)N(C)C)n2)cc1` [compound 46], the response vs control in vivo at 12.5 mg/kg in experiment [2] is 95%.
Take `CCOC(=O)c1[nH]c(SC(=O)N(C)C)nc1-c1ccccc1` [compound 44]: in experiment [1], the response vs control in vivo at 25 mg/kg was 143%.
`CN(C)C(=O)n1cnc(C[n+]2ccccc2)c1` [compound 19]: in experiment [1], the “Life Prolongation Ratio” value is on record as 1.09.
Regarding `CC(C)n1cc(-c2ccccc2)nc1SC(=O)N(C)C` [compound 25], the response vs control in vivo at 25 mg/kg in experiment [1] was 119%.
On the same count and under the same terms, under `CON(C)C(=O)n1cnc(Cc2c(C)cccc2C)c1` [compound 12] stands 109%; under `Cc1cccc(C)c1Cc1cn(C(=O)N(C)C)cn1` [compound 2], 305%; under `Cc1cc(C)c(Cc2cn(C(=O)N(C)C)cn2)c(C)c1` [compound 4], 184%.
Same read-out and setting: under `Cn1c(=O)sc2nc(-c3ccccc3)cn2c1=O` [compound 53, 3-methyl-7-phenyl-1,3,5-thiadiazino[3,2-a]imidazole-2,4(3H)-dione] stands 145%; under `CCn1c(=O)sc2nc(-c3ccccc3)cn2c1=O` [compound 54], 137%.
As to `O=C(Sc1nc(-c2ccccc2)cn1C(=O)N1CCCCC1)N1CCCCC1` [compound 38], the response vs control in vivo at 25 mg/kg in experiment [1] turned out to be 113%.
Turning to `CN(C)C(=O)Sc1nccn1-c1ccccc1` [compound 50], in experiment [1], the response vs control in vivo at 25 mg/kg amounted to 127%.
In the case of `CN(C)C(=O)Sc1nc(-c2ccc(Cl)cc2)c[nH]1` [compound 48], the response vs control in vivo at 12.5 mg/kg in experiment [2] was 115%.
As for `Cc1cccc(C)c1Cc1cn(C(=S)N(C)C)cn1` [compound 20], in experiment [1], the response vs control in vivo at 25 mg/kg stood at 243%.
With `CN(C)C(=O)Sc1nccn1-c1ccc([N+](=O)[O-])cn1` [compound 51], the response vs control in vivo at 50 mg/kg in experiment [2] amounted to 245%.
As for `Cc1cccc(C)c1Cc1cn(C(=O)N(C)C(C)C)cn1` [compound 9], the response vs control in vivo at 25 mg/kg in experiment [1] is 466%.
As to `CN(C)C(=O)Sc1nc(-c2ccc(-c3ccccc3)cc2)c[nH]1` [compound 49], the response vs control in vivo at 25 mg/kg in experiment [1] was 127%.
In the case of `O=C(Sc1nc(-c2ccccc2)c[nH]1)N1CCCC1` [compound 36], the response vs control in vivo at 12.5 mg/kg in experiment [2] came to 94%.
Consider `C=CCN(C)C(=O)n1cnc(Cc2c(C)cccc2C)c1` [compound 11], for which the response vs control in vivo at 25 mg/kg in experiment [1] is 255%.
On the same count and under the same terms, with `CN(C)C(=O)Sc1nc(-c2ccccc2)cn1C1CCCCC1` [compound 26] the figure was 132%; with `CN(C)C(=O)Sc1nc(-c2ccccc2)cn1-c1ccc([N+](=O)[O-])cn1` [compound 28, 2-(N,N-dimethylcarbamoylthio)-1-(5-nitropyridinyl)-4-phenylimidazole], 102%.
On to `CN(C)C(=O)Sc1nc(-c2ccccc2)cn1-c1ncccc1[N+](=O)[O-]` [compound 29], for which, in experiment [1], the response vs control in vivo at 25 mg/kg was determined as 110%.
On the same count and under the same terms, with `CCN(CC)C(=O)n1cnc(Cc2c(C)cccc2C)c1` [compound 13] the figure was 281%; with `CN(C)C(=O)Sc1nc(-c2ccccc2)c[nH]1` [compound 21, 2-(N,N-dimethylcarbamoylthio)-4-phenylimidazole], 283%.
In the case of `O=C(Sc1nc(-c2ccccc2)c[nH]1)N1CCOCC1` [compound 39], in experiment [2], the response vs control in vivo at 12.5 mg/kg worked out at 104%.
For `O=C(Sc1nc(-c2ccccc2)c[nH]1)N1CCSCC1` [compound 40], the response vs control in vivo at 12.5 mg/kg in experiment [2] worked out at 93%.
Consider `Cc1cccc(C)c1Cc1cn(C(=O)N2CCOCC2)cn1` [compound 17], for which, in experiment [1], the response vs control in vivo at 25 mg/kg turned out to be 165%.
Same read-out and setting: with `CC(=O)n1cc(-c2ccccc2)nc1SC(=O)N(C)C(C)C` [compound 33] the figure was 127%; with `Cc1[nH]c(SC(=O)N(C)C)nc1-c1ccccc1` [compound 42], 192%.
Consider `CC(=O)n1cc(-c2ccccc2)nc1SC(=O)N(C)C` [compound 32], for which the response vs control in vivo at 25 mg/kg in experiment [1] was found to be 281%.
With `O=C(Sc1nc(-c2ccccc2)c[nH]1)N1CCCc2ccccc21` [compound 41], the response vs control in vivo at 12.5 mg/kg in experiment [2] is 76%.
For `CCCn1cc(-c2ccccc2)nc1SC(=O)N(C)C` [compound 24], the response vs control in vivo at 25 mg/kg in experiment [1] came out at 163%.
On the same count and under the same terms, under `COc1ccc(-c2c[nH]c(SC(=O)N(C)C)n2)cc1` [compound 47] stands 165%.
Turning to `CN(C)C(=O)Sc1nccn1-c1ncccc1[N+](=O)[O-]` [compound 52], in experiment [2], the response vs control in vivo at 50 mg/kg came to 192%.
For `CN(C)C(=O)Sc1nc(-c2ccccc2)cn1C(=O)N(C)C` [compound 30, 1-(N,N-dimethylcarbamoyl)-2-(N,N-dimethylcarbamoylthio)-4-phenylimidazole], the response vs control in vivo at 25 mg/kg in experiment [1] is 115%.
Still for that read-out and setting: with `CN(C)C(=O)Sc1nc(-c2ccccc2)cn1C` [compound 22] the figure was 230%.
